Measured values: US8778974B2, “Trisubstituted 1,2,4 triazoles” (Janssen Pharmaceutica NV, priority 2008, dated 2014)

Tests used:
[1] = target: T1, hα7-wt nAChR-expressing GH4Cl cells (Homo sapiens, UniProt P36544); test: Patch-clamp current recording (whole-cell), potentiation of choline 1 mM response, PAM type; type: cell-based; design: key to Pam type: Type 0 compounds minimally enhance the effect size of the current elicited by 1 mM choline.; Type 1 compounds enhance the effect size of the current elicited by 1 mM choline but minimally alter the kinetics of the receptor.; Type 2 compounds enhance the effect size of the current elicited by 1 mM choline while reducing the rate and/or the extent of desensitization.; Type 3 compounds enhance the effect size of the current elicited by 1 mM choline. When tested at higher concentrations up to 10 μM they completely inhibit desensitization, in particular a 1 mM choline application of 250 milliseconds.; Type 4 compounds allow for an initial desensitization of the receptor followed by a re-opening of the receptor during agonist application; conditions: for EC50: according to Ex. D.2, "<5" = no top plateau reached at maximal concentration, read-out: Potency (pEC50) (converted); for Pam type: patch-clamp current recording, 1 mM choline
T1 construct: expressed in transfected cells
T1 sequence (P36544 23-502): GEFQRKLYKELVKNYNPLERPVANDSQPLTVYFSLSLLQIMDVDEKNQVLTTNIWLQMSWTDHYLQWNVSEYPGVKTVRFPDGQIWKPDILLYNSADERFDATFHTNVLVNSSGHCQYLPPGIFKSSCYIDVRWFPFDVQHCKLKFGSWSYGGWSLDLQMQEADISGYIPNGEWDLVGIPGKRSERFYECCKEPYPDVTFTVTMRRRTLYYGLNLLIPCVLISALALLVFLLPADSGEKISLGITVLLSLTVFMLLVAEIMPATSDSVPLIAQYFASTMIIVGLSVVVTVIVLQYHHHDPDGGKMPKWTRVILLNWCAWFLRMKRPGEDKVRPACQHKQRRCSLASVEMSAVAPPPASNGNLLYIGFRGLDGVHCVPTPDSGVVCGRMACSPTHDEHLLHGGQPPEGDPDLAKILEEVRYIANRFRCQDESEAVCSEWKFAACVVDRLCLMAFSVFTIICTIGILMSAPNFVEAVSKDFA
Description: The compounds of the present invention are classified as type 1-4, based on qualitative kinetic properties, as determined by whole-cell voltage-clamp recordings. This classification is based on the effect of an α7 PAM compound, as described hereinbefore, on the signal elicited by an agonist application. In particular, said agonist is choline at a concentration of 1 mM. In a preferred experimental setting, said α7 PAM compound and choline are simultaneously applied to the cell, as described hereinafter. Desensitization is defined as the closure of the receptor upon activation during the application of the agonist in whole-cell voltage-clamp electrophysiology measurements seen as the reduction of the […] current after initial activation by the agonist.
The definition of the PAM types 1-4 is described hereinafter: • Type 0 compounds minimally enhance the effect size of the current elicited by 1 mM choline. • Type 1 compounds enhance the effect size of the current elicited by 1 mM choline but minimally alter the kinetics of the receptor. In particular, the rate and the extent of desensitization, elicited by the agonist, is not affected. The compound-modulated response to 1 mM choline, therefore, is a close to linear scaling of the 1 mM choline response in absence of the α7 PAM compound. • Type 2 compounds enhance the effect size of the current elicited by 1 mM choline while reducing the rate and/or the extent of desensitization. • Type 3 compounds enhance the effect size of the current elicited by 1 mM choline. […] At low-potency concentrations of the α7 PAM compound, the agonist-induced activation, which is followed by desensitization, can still be separated from the compound-induced re-opening as an initial inward current-maximum. At higher potency concentrations of the α7 PAM compound, the re-opening occurs faster than the closure due to desensitization so that the initial current-maximum disappears.
Patch-clamp Current Recording
Patch-clamp recording from mammalian cells has provided a powerful means of assessing the function of membrane-bound proteins thought to be subunits of ligand-gated ion channels. Activation of such proteins by endogenous or exogenous ligands cause opening of a pore associated with the receptor through which ions flow down their electrochemical gradient. In the case of the hα7-wt nAChR-expressing GH4Cl recombinant cell line the preferential permeability to calcium of this receptor means that calcium flows into the cell upon activation by ACh, choline and other nicotinic ligands giving rise to a calcium current. Since this receptor rapidly desensitizes in the presence of agonist it is important an application system is used which is capable of very rapid switching of solutions (<100 ms) to prevent partial or full desensitisation of receptor responses coincident with the time of agonist application. Consequently, a second convenient technique to assess the enhancement of nicotinic efficacy is patch-clamp recording from hα7-wt nAChR-expressing GH4Cl cells coupled with a rapid-application system.
• a) Assay buffers • The external recording solution consisted of 152 mM NaCl, 5 mM KCl, 1 mM MgCl2, 1 mM Calcium, 10 mM HEPES; pH 7.3. The internal recording solution consisted of 140 mM CsCl, 10 mM HEPES, 10 mM EGTA, 1 mM MgCl2, pH 7.3. • b) Patch-clamp recording was carried out using a Patch-clamp amplifier (Multiclamp 700A, Axon Instruments, Calif., USA). hα7-wt nAChR-expressing GH4Cl cells were patch-clamp in the whole cell configuration (Hamill et al, 1981) with a borosilicate glass electrode of 1.5-3 MΩ tip resistance when filled with the internal recording solution. Recordings were made on cells with membrane resistance >500 MΩ and more preferably 1GΩ and series resistance <15 MΩ with at least 60% series resistance compensation. […]

| melting point [°C] | SMILES | EC50 [1] [nM] | Pam type [1] |
| --- | --- | --- | --- |
| 195.8 | CN(C)C(=O)CCc1nc(Nc2ccc3c(c2)OC(F)(F)O3)nn1-c1cccnc1Cl [E118] | 692 |  |
| 141.1 | Cc1cncc(-n2nc(Nc3ccc4c(c3)OC(F)(F)O4)nc2CCC(=O)N(C)C)c1 [E119] | 107 | 4 |
| 154.6 | CC[C@H](O)Cc1nc(Nc2cccc(Cl)c2)nn1-c1cc(C)nc(C)c1 [E129] | 245 | 2 |
| 168 | CCc1cc(-n2nc(Nc3ccc(F)c(F)c3)nc2C[C@H](C)O)ccn1 [E131] | 1380 | 2 |
| 180.6 | CC[C@H](O)Cc1nc(Nc2ccc(F)c(F)c2)nn1-c1cc(C)nc(C)c1 [E132] | 240 | 2 |
| 156.2 | CCc1cc(-n2nc(Nc3cc(OC)cc(C(F)(F)F)c3)nc2C[C@H](C)O)ccn1 [E133] | 363 | 4 |
| 175.8 | CC[C@@H](O)Cc1nc(Nc2ccc(F)c(F)c2)nn1-c1ccnc(C)c1 [E134] | 1050 | 2 |
| 196.3 | COc1cc(Nc2nc(C[C@H](C)O)n(-c3ccnc(C)c3)n2)cc(C(F)(F)F)c1 [E135] | 550 | 4 |
| 174.1 | CC[C@H](O)Cc1nc(Nc2cc(OC)cc(C(F)(F)F)c2)nn1-c1ccnc(C)c1 [E137, (alphaS)-alpha-Ethyl-3-[[3-methoxy-5-(trifluoromethyl)phenyl]amino]-1-(2-methyl-4-pyridinyl)-1H-1,2,4-triazole-5-ethanol] | 105 | 4 |
| 169.4 | CCc1cc(-n2nc(Nc3ccc(F)c(F)c3)nc2C[C@@H](O)CC)ccn1 [E138] | 295 | 2 |
| 126.7 | CC[C@H](O)Cc1nc(Nc2cccc(Cl)c2)nn1-c1ccnc(C)c1 [E139] | 324 | 2 |
| 127.5 | CC[C@H](O)Cc1nc(Nc2ccc(F)c(F)c2)nn1-c1ccc(C)nc1 [E140] | 1620 | 2 |
| 154.7 | CC[C@H](O)Cc1nc(Nc2cc(OC)cc(C(F)(F)F)c2)nn1-c1ccc(C)nc1 [E142] | 182 | 4 |
| 137.5 | COc1cc(Nc2nc(C[C@H](C)O)n(-c3ccc(C)nc3)n2)cc(C(F)(F)F)c1 [E143] | 912 | 4 |
| 145.5 | COc1cc(Nc2nc(C[C@H](C)O)n(-c3cccnc3)n2)cc(C(F)(F)F)c1 [E144] | 2950 |  |
| 144.2 | CC[C@H](O)Cc1nc(Nc2ccc(F)c(F)c2)nn1-c1cccnc1 [E145] | 2450 |  |
| 135.4 | COc1ccc(-n2nc(Nc3cc(OC)cc(C(F)(F)F)c3)nc2C[C@H](C)O)cc1 [E146] | ~363 |  |
| 144.1 | CC[C@H](O)Cc1nc(Nc2ccc(F)c(F)c2)nn1-c1cccc(OC)c1 [E149] | 1380 |  |
| 248.8 | Cc1cc(-n2nc(Nc3cccc(Cl)c3F)nc2CC(=O)NC2CC2)cc(C)n1 [E150] | 417 | 2 |

| melting point [°C] | SMILES | EC50 [1] [nM] | Pam type [1] |
| --- | --- | --- | --- |
| 234 | Cc1cc(-n2nc(Nc3cccc(Cl)c3F)nc2CC(=O)NC2CCC2)cc(C)n1 [E152] | 245 | 2 |
| 231.4 | CCNC(=O)Cc1nc(Nc2cccc(Cl)c2F)nn1-c1cc(C)nc(C)c1 [E153, 3-[(3-chloro-2-fluorophenyl)amino]-1-(2,6-dimethyl-4-pyridinyl)-N-ethyl-1H-1,2,4-triazole-5-acetamide] | 562 | 2 |
| 248.3 | Cc1cc(-n2nc(Nc3ccc4c(c3)OC(F)(F)O4)nc2CC(=O)NC2CC2)c(C)cn1 [E160] | 2140 | 2 |
| 227.2 | Cc1cc(-n2nc(Nc3ccc4c(c3)OC(F)(F)O4)nc2CC(=O)NCC2CC2)c(C)cn1 [E161] | 1320 | 2 |
| 247.5 | Cc1cc(-n2nc(Nc3cccc(OC(F)(F)F)c3)nc2CC(=O)NCC2CC2)cc(C)n1 [E165] | 209 | 1 |
| 296.8 | CCNC(=O)Cc1nc(Nc2ccc(F)c(F)c2)nn1-c1cc(C)nc(C)c1 [E167, 3-[(3,4-difluorophenyl)amino]-1-(2,6-dimethyl-4-pyridinyl)-N-ethyl-1H-1,2,4-triazole-5-acetamide] | 617 | 2 |
| 279.3 | Cc1cc(-n2nc(Nc3ccc(F)c(F)c3)nc2CC(=O)NC2CC2)cc(C)n1 [E168] | 513 | 2 |
| 270 | Cc1cc(-n2nc(Nc3cccc(C(F)(F)F)c3)nc2CC(=O)NC2CC2)cc(C)n1 [E171] | 501 | 4 |
| 127.9 | CC[C@H](O)Cc1nc(Nc2cccc(Cl)c2F)nn1-c1ccnc(C)c1 [E173] | 407 | 2 |
| 276.3 | Cc1cc(-n2nc(Nc3cccc(C(F)(F)F)c3)nc2CC(=O)NC2CCC2)cc(C)n1 [E174] | 162 | 2 |
| 283.6 | CCNC(=O)Cc1nc(Nc2cccc(C(F)(F)F)c2)nn1-c1cc(C)nc(C)c1 [E175] | 550 | 4 |
| 260.9 | Cc1cc(-n2nc(Nc3cccc(C(F)(F)F)c3)nc2CC(=O)NCC2CC2)cc(C)n1 [E177] | 219 | 2 |
| 291.3 | Cc1cc(-n2nc(Nc3ccc4c(c3)OC(F)(F)O4)nc2CC(=O)NC2CCC2)cc(C)n1 [E179] | 97.7 | 1 |
| 292.6 | Cc1cc(-n2nc(Nc3ccc4c(c3)OC(F)(F)O4)nc2CC(=O)NC2CC2)cc(C)n1 [E180, N-cyclopropyl-3-[(2,2-difluoro-1,3-benzodioxol-5-yl)amino]-1-(2,6-dimethyl-4-pyridinyl)-1H-1,2,4-triazole-5-acetamide] | 302 | 2 |
| 277.5 | CCNC(=O)Cc1nc(Nc2cccc(OC(F)(F)F)c2)nn1-c1cc(C)nc(C)c1 [E181] | 513 | 2 |
| 282.2 | Cc1cc(-n2nc(Nc3cccc(OC(F)(F)F)c3)nc2CC(=O)NC2CC2)cc(C)n1 [E182, N-cyclopropyl-1-(2,6-dimethyl-4-pyridinyl)-3-[[3-(trifluoromethoxy)phenyl]amino]-1H-1,2,4-triazole-5-acetamide] | 331 | 2 |
| 264.4 | Cc1cc(-n2nc(Nc3cccc(OC(F)(F)F)c3)nc2CC(=O)NC2CCC2)cc(C)n1 [E184] | 257 | 2 |
| 278.7 | Cc1cc(-n2nc(Nc3ccc(F)c(F)c3)nc2CC(=O)NCC2CC2)cc(C)n1 [E185] | 468 | 2 |
